Assay results taken from US20160002204A1 (Board of Regents, The University of Texas System, priority 2014, published 2016).

How the values were obtained:
[1] = target: T1, GLS1 (purified recombinant human GAC) (Homo sapiens, UniProt O94925); assay: GLS1 enzymatic activity assay (dual-coupled, Amplex UltraRed/resorufin); assay type: biochemical
T1 sequence (O94925 55-598 isoform O94925-3 limits assumed): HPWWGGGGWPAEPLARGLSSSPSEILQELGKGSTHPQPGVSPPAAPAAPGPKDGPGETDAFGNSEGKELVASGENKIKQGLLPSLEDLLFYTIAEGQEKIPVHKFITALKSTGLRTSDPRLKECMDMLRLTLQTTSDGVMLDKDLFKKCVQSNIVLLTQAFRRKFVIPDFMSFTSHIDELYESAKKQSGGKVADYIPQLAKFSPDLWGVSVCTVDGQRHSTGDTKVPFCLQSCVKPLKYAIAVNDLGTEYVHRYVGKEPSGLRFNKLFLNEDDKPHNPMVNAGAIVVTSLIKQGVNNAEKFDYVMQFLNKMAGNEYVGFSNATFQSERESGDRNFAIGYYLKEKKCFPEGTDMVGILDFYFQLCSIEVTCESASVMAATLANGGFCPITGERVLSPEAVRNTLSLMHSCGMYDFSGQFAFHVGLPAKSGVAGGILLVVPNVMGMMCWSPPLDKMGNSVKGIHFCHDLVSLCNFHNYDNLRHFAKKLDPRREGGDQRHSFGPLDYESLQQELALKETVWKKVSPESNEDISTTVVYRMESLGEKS
How it was run: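 GAC activity measured by coupling glutamate to glutamate oxidase and HRP, generating resorufin from Amplex UltraRed. Enzyme (2 nM) preincubated with 50 mM potassium phosphate 10 min at room temperature, then inhibitor 10 min; 1 mM glutamine substrate, 1% DMSO. Fluorescence 530/590 nm, kinetic or 20-min endpoint; IC50 from four-parameter logistic fit.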

A549 cells = assay: A549 proliferation (viability) assay, Cell Titer Fluor, 72 hours; assay type: cell-based; settings: Homo sapiens
How it was run: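 Compound exposure lasted 72 h (final DMSO 0.5% v/v) on A549 cells plated at 1000 cells/well one day earlier. Cell Titer Fluor added, 30 min at 37 °C, fluorescence read; EC50 derived by four-parameter logistic curve fitting.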

| SMILES | IC50 [1] [nM] | EC50 (A549 cells) [nM] |
| --- | --- | --- |
| O=C(Cc1ccccc1)Nc1ccn(CC[C@H](F)Cn2cc(C(=O)NCc3cccc(OC(F)(F)F)c3)nn2)c(=O)c1F [Example 127] | < 100 | < 100 |
| CC(C)CNC(=O)Nc1nnc(CCCCn2ccc(NC(=O)CC3CCCC3)c(F)c2=O)s1 [Example 128, 2-cyclopentyl-N-(3-fluoro-1-(4-(5-(3-isobutylureido)-1,3,4-thiadiazol-2-yl)butyl)-2-oxo-1,2-dihydropyridin-4-yl)acetamide] | 100 to 500 | > 5000 |
| O=C(Cc1ccccc1)Nc1ccn(CCCCc2nnc(NC(=O)NCc3ccccc3)s2)c(=O)c1F [Example 129, N-(1-(4-(5-(3-benzylureido)-1,3,4-thiadiazol-2-yl)butyl)-3-fluoro-2-oxo-1,2-dihydropyridin-4-yl)-2-phenylacetamide] | < 100 | 500 to 5000 |
| O=C(CC1CCCC1)Nc1ccn(CCCCc2nnc(NC(=O)NCc3ccccc3)s2)c(=O)c1F [Example 130, N-(1-(4-(5-(3-benzylureido)-1,3,4-thiadiazol-2-yl)butyl)-3-fluoro-2-oxo-1,2-dihydropyridin-4-yl)-2-cyclopentylacetamide] | < 100 | 500 to 5000 |
| O=C(CC1CCCC1)Nc1ccn(CCCCc2nnc(NC(=O)NCc3ccccn3)s2)c(=O)c1F [Example 131, 2-cyclopentyl-N-(3-fluoro-2-oxo-1-(4-(5-(3-(pyridin-2-ylmethyl)ureido)-1,3,4-thiadiazol-2-yl)butyl)-1,2-dihydropyridin-4-yl)acetamide] | < 100 | 500 to 5000 |
| CNC(=O)Nc1nnc(CCCCn2ccc(NC(=O)CC3CCCC3)c(F)c2=O)s1 [Example 132, 2-cyclopentyl-N-(3-fluoro-1-(4-(5-(3-methylureido)-1,3,4-thiadiazol-2-yl)butyl)-2-oxo-1,2-dihydropyridin-4-yl)acetamide] | 100 to 500 | > 5000 |
| O=C(CC1CCCC1)Nc1ccn(CCCCc2nnc(NC(=O)NCc3cccc(C(F)(F)F)c3)s2)c(=O)c1F [Example 133, 2-cyclopentyl-N-(3-fluoro-2-oxo-1-(4-(5-(3-(3-(trifluoromethyl)benzyl)ureido)-1,3,4-thiadiazol-2-yl)butyl)-1,2-dihydropyridin-4-yl)acetamide] | < 100 | 100 to 500 |
| O=C(Cc1ccccc1)Nc1ccn(CCC(F)Cn2cc(C(=O)NCc3cccc(OC(F)(F)F)c3)nn2)c(=O)c1 (stereo not shown) [Example 134, 1-{2-fluoro-4-[2-oxo-4-(2-phenylacetamido)-1,2-dihydropyridin-1-yl]butyl}-N-{[3-(trifluoromethoxy)phenyl]methyl}-1H-1,2,3-triazole-4-carboxamide] | < 100 | < 100 |
| Cc1ccc(CNC(=O)c2cn(CCCCn3ccc(NC(=O)OCc4ccccc4)cc3=O)nn2)cn1 [Example 135, benzyl N-{1-[4-(4-{[(6-methylpyridin-3-yl)methyl]carbamoyl}-1H-1,2,3-triazol-1-yl)butyl]-2-oxo-1,2-dihydropyridin-4-yl}carbamate] | 100 to 500 | 500 to 5000 |
| NC(=O)CNC(=O)c1cn(CCCCn2ccc(NC(=O)Cc3cccc(OC(F)(F)F)c3)cc2=O)nn1 [Example 136, 2-({1-[4-(2-oxo-4-{2-[3-(trifluoromethoxy)phenyl]acetamido}-1,2-dihydropyridin-1-yl)butyl]-1H-1,2,3-triazol-4-yl}formamido)acetamide] | 100 to 500 | > 5000 |
| CC(C)(C)OC(=O)Nc1ccn(CCCCn2cc(C(=O)NCc3cccc(C(F)(F)F)c3)nn2)c(=O)c1 [Example 139, tert-butyl N-(2-oxo-1-{4-[4-({[3-(trifluoromethyl)phenyl]methyl}carbamoyl)-1H-1,2,3-triazol-1-yl]butyl}-1,2-dihydropyridin-4-yl)carbamate] | < 100 | 100 to 500 |
| O=C(CC1CCCCC1)Nc1ccn(CCCCn2cc(C(=O)NCc3cccc(C(F)(F)F)c3)nn2)c(=O)c1 [Example 141, 1-{4-[4-(2-cyclohexylacetamido)-2-oxo-1,2-dihydropyridin-1-yl]butyl}-N-{[3-(trifluoromethyl)phenyl]methyl}-1H-1,2,3-triazole-4-carboxamide] | < 100 | < 100 |
| Cc1ccc(CNC(=O)c2cn(CCCCn3ccc(NC(=O)OC(C)(C)C)cc3=O)nn2)cn1 [Example 143, tert-butyl N-{1-[4-(4-{[(6-methylpyridin-3-yl)methyl]carbamoyl}-1H-1,2,3-triazol-1-yl)butyl]-2-oxo-1,2-dihydropyridin-4-yl}carbamate] | 100 to 500 | 500 to 5000 |
| O=C(Cc1ccccc1)Nc1ccn(CC(F)CCn2cc(C(=O)NCc3cccc(OC(F)(F)F)c3)nn2)c(=O)c1 (stereo not shown) [Example 144, 1-{3-fluoro-4-[2-oxo-4-(2-phenylacetamido)-1,2-dihydropyridin-1-yl]butyl}-N-{[3-(trifluoromethoxy)phenyl]methyl}-1H-1,2,3-triazole-4-carboxamide] | < 100 | < 100 |
| Cc1ccc(CNC(=O)c2cn(CCCCn3ccc(NC(=O)CC4CCCCC4)cc3=O)nn2)cn1 [Example 145, 1-{4-[4-(2-cyclohexylacetamido)-2-oxo-1,2-dihydropyridin-1-yl]butyl}-N-[(6-methylpyridin-3-yl)methyl]-1H-1,2,3-triazole-4-carboxamide] | < 100 | 100 to 500 |
| O=C(CC1CCCCC1)Nc1ccn(CCCCn2cc(C(=O)NCc3ncccc3F)nn2)c(=O)c1 [Example 146, 1-{4-[4-(2-cyclohexylacetamido)-2-oxo-1,2-dihydropyridin-1-yl]butyl}-N-[(3-fluoropyridin-2-yl)methyl]-1H-1,2,3-triazole-4-carboxamide] | < 100 | 100 to 500 |
| O=C(Cc1ccccc1)Nc1ccn(CCCCn2cc(C(=O)NCc3ncccc3F)nn2)c(=O)c1 [Example 147, N-[(3-fluoropyridin-2-yl)methyl]-1-{4-[2-oxo-4-(2-phenylacetamido)-1,2-dihydropyridin-1-yl]butyl}-1H-1,2,3-triazole-4-carboxamide] | 100 to 500 | > 5000 |
| Cc1ccc(CNC(=O)c2cn(CCC(F)Cn3ccc(NC(=O)Cc4ccccc4)cc3=O)nn2)cn1 (stereo not shown) [Example 148, 1-{3-fluoro-4-[2-oxo-4-(2-phenylacetamido)-1,2-dihydropyridin-1-yl]butyl}-N-[(6-methylpyridin-3-yl)methyl]-1H-1,2,3-triazole-4-carboxamide] | < 100 | 500 to 5000 |
| O=C(Cc1ccccc1)Nc1ccn(CC(F)CCn2cc(C(=O)NCc3ncccc3F)nn2)c(=O)c1 (stereo not shown) [Example 149, 1-{3-fluoro-4-[2-oxo-4-(2-phenylacetamido)-1,2-dihydropyridin-1-yl]butyl}-N-[(3-fluoropyridin-2-yl)methyl]-1H-1,2,3-triazole-4-carboxamide] | 100 to 500 | 500 to 5000 |
| Cc1ccc(CNC(=O)c2cn(CC(F)CCn3ccc(NC(=O)Cc4ccccc4)cc3=O)nn2)cn1 (stereo not shown) [Example 150, 1-{2-fluoro-4-[2-oxo-4-(2-phenylacetamido)-1,2-dihydropyridin-1-yl]butyl}-N-[(6-methylpyridin-3-yl)methyl]-1H-1,2,3-triazole-4-carboxamide] | 100 to 500 | > 5000 |
